Data as given in PubChem BioAssay AID179 (DTP/NCI, 2004).
Active and inactive are the calls of the source.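 How the source made its calls: active means compounds giving half or more protection of infected cells from virus-caused growth loss, again on retest; inactive means the rest.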

Tested on: CEM cells HIV-1 protection, formazan growth assay
Assay: NCI AIDS Antiviral Assay
Settings: for IC50: measured here: growth of uninfected CEM cells
Method in brief: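 Screen of anti-HIV-1 activity in human CEM cells using a formazan-based growth measurement at five drug concentrations. Hits with 50% or greater protection were repeated, and confirmation required reproducible complete protection.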

Row | SMILES | EC50 [µM] | IC50 [µM] | outcome
1 | CCOC(=O)c1ccc(N2C(=S)N(C(=O)c3ccccc3)C(=Nc3ccccc3)C2=Nc2ccccc2)cc1 | > 200 | 2.82 | –
2 | CC1(C)OC(C[C@]2(C#N)C[C@H](CCl)OC(C)(C)O2)C[C@@H](C[C@]2(C#N)C[C@H](CCl)OC(C)(C)O2)O1 (stereo not given in full) | > 200 | 67.6 | –
3 | O=C1O/C(=C(/Cl)c2cccc3ccccc23)c2ccccc21 | – | – | inactive
4 | O=c1[nH]c(-c2ccccc2)nc2c1OCN(Cc1ccccc1)C2 | > 115 | 28.8 | –
5 | OC1[C@H](O)CN(OCc2ccccc2)C[C@@H]1O (stereo not given in full) | > 200 | > 200 | –
6 | CN(C)c1ccc(/C=C/c2cc[n+](C)c3ccccc23)cc1 | > 200 | 0.501 | –
7 | O=c1oc2nc3ccc(Cl)cc3c(=O)n2c2ccc(Cl)cc12 | > 200 | > 200 | –
8 | c1ccc(CNc2ccc3[nH]c4cnccc4c3c2)cc1 | > 251 | 36.3 | –
9 | Cc1cc(O)c2c(=O)c3ccccc3[nH]c2c1 | > 200 | 40.7 | –
10 | COc1nn(C)c(=O)c2cccnc12 | > 1100 | 676 | –
11 | CC1(C)C(=O)C(C)(C)C12SSC1(S2)C(C)(C)C(=O)C1(C)C | > 200 | 81.3 | –
12 | CSc1nc(=S)[nH]c2n[nH]c(C)c12 | > 200 | > 200 | –
13 | Cc1cccc2c1NC(c1c(C)[nH]c3ccccc13)C2 (stereo not given) | – | – | inactive
14 | CCOP(=O)(OCC)/C(=C/NC(=S)c1cccnc1)C(=O)OC | > 200 | 34.7 | –
15 | CCCC(C(=O)OCC(C)N1CCCC1(C)C)C1CCCC1 (stereo not given) | – | – | inactive
16 | C/C(=N/O)C1CC(C)([N+](=O)[O-])CCC1(C)O (stereo not given) | > 200 | > 200 | –
17 | CCOC(=O)C12CN(C34CC5CC(CC(C5)C3)C4)CC(C(=O)OCC)(C1=O)C(c1ccccc1)OC2c1ccccc1 (stereo not given) | > 30.9 | 13.5 | –
18 | O=C1NCCS(=O)(=O)N2CCC[C@@H]12 | > 1230 | > 1230 | –
19 | CC(C)CCCC(C)[C@H]1CCC2C3C[C@@H](CCC=C(c4cc(Cl)c(O)c(C(=O)O)c4)c4cc(Cl)c(O)c(C(=O)O)c4)[C@H]4CCCC[C@]4(C)C3CC[C@@]21C (stereo not given in full) | 20 | > 100 | –
20 | COC(=O)c1sc(=O)n(-c2ccccc2)c1SCc1ccccc1 | > 38 | > 38 | –
21 | COC(=O)C(C(=O)C(=O)Nc1ccc(C(F)(F)F)cc1[N+](=O)[O-])c1csc(-n2nc(-c3ccccc3)cc2-c2ccccc2)n1 (stereo not given) | > 53.7 | 39.8 | –
22 | Cc1cc(O)c(/C=N/C(=S)Nc2ccc(S(N)(=O)=O)cc2)c(=O)o1 | > 200 | > 200 | –

Row | SMILES | EC50 [µM] | IC50 [µM] | outcome
23 | Cn1nc(-c2ccccc2)c2c(/C=C/c3ccc(F)cc3)onc2c1=O | > 38.9 | > 38.9 | –
24 | Cc1ccc(S(=O)(=O)NC(=O)NC23CC4CC(CC(F)(C4)C2)C3)cc1 | > 676 | 339 | –
25 | COc1cc(/C=C/C(=O)CC(=O)/C=C/c2cc(OC)c(O)c(OC)c2)cc(OC)c1O | > 200 | 12.6 | –
26 | CCCc1cc(=O)oc2c3c(cc(OC)c12)O[C@H](C)[C@H](C)C3=O | > 200 | 47.9 | –
27 | Cc1nc(N)nc(N)c1-c1ccc(Cl)c(Cl)c1 | > 200 | – | –
28 | CCOC(=O)c1cc2c(nc1N)C(=O)CCCC2 | > 200 | 148 | –
29 | CCOC(=O)c1nc2cc(C(F)(F)F)ccc2nc1Oc1ccc(C#N)cc1 | > 200 | 93.3 | –
30 | COc1ccc2nc3c(nc2c1)C(C)(C)C=C3c1ccc(Br)cc1 | > 100 | > 100 | –
31 | COC(=O)CCC1(C)C2CCC1(C)/C(=N/O)C2 (stereo not given) | > 200 | > 200 | –
32 | N#Cc1nc(-c2ccccc2O)oc1N | > 200 | > 100 | –
33 | Cn1cnc([N+](=O)[O-])c1Sc1nc2ccccc2s1 | > 24.5 | 3.24 | –
34 | CN(C)c1ccc(C=C2C(=O)OC(C)(C)OC2=O)cc1 | – | – | inactive
35 | c1ccc2[nH]c(CSc3nc4ccccc4s3)nc2c1 | > 200 | 120 | –
36 | O=C1CCCCCCCCCCC1CN1CCCCC1 (stereo not given) | – | – | inactive
37 | C[N+](C)(C)CC(=O)N/N=C(\Cc1nc2ccc([N+](=O)[O-])cc2[nH]c1=O)C(=O)Nc1nc2ccc([N+](=O)[O-])cc2s1 | > 42.7 | > 42.7 | –
38 | O=c1[nH]nc(-c2ccccc2)n1-c1cccc([N+](=O)[O-])c1 | > 200 | > 200 | –
39 | CCOC(=O)NC1=NCCS1 | – | – | inactive
40 | COc1cc(/C=C2/Cc3ccccc3C2=O)ccc1O | > 107 | 55 | –
41 | COC(=O)CCSSCCC(=O)OC | > 1050 | 182 | –
42 | CCOC(=O)/C(=C/c1ccc(C#N)cc1)N(CC)CC | > 251 | > 251 | –
43 | COc1ccc(C[C@H]2C(=O)OC[C@@H]2Cc2ccc(OC)c(OC)c2)cc1 | > 200 | 24 | –
44 | Cc1ccc(S(=O)(=O)SC(SCC(=O)c2ccc(Br)cc2)C(=O)c2ccc(Br)cc2)cc1 (stereo not given) | > 40.7 | 38.9 | –

Row | SMILES | EC50 [µM] | IC50 [µM] | outcome
45 | O=C(O)c1ccccc1C(=O)OC1CC2CCC1C2 (stereo not given) | > 200 | > 200 | –
46 | NC1=NCc2c(sc3c2CCCC3)N1 | > 200 | 18.6 | –
47 | COC(=O)C(C(=O)C(=O)Nc1ccc(N)cc1[N+](=O)[O-])c1nc2ccc(Cl)cc2[nH]c1=O (stereo not given) | > 40.7 | 30.9 | –
48 | CCc1ccc(Cc2ccc(CC)c(NC(=O)C(=O)Cc3nc4ccccc4nc3C)c2CC)c(CC)c1NC(=O)C(=O)Cc1nc2ccccc2nc1C | > 13.5 | > 13.5 | –
49 | Cc1ccccc1[P+](Cc1ccccc1)(c1ccccc1)c1ccccc1 | > 200 | 1.26 | –
50 | O=c1c2cc(Br)ccc2nc(-c2ccccc2Cl)n1NCC1(O)OCC(O)C(O)C1O (stereo not given) | – | – | inactive
51 | COC(=O)[C@H](Cc1cn(C(c2ccccc2)(c2ccccc2)c2ccccc2)cn1)NCc1cc(N(C)C)cc(CN[C@@H](Cc2cn(C(c3ccccc3)(c3ccccc3)c3ccccc3)cn2)C(=O)OC)n1 | > 100 | 5.89 | –
52 | COc1ccc(/C=C/C(=O)c2ccccc(=O)c2O)cc1 | > 63.1 | 3.39 | –
53 | COc1cc2c3c(cccc3c1)C(=O)N(CCN1CCCC1)C2=O | > 200 | 2.45 | –
54 | CC(C)c1c(Cc2ccccc2)n(COCCC[Se]c2ccccc2)c(=O)[nH]c1=O | 0.0501 | 1.38 | –
55 | O=C(O)CC(NC(=O)OCc1ccccc1)C(=O)O (stereo not given) | > 200 | > 200 | –
56 | CCc1cccc(C(C)C)c1NC(=O)CC1Sc2ccccc2NC1=O (stereo not given) | > 97.7 | 52.5 | –
57 | N#CCC(=O)NC1C2CC3CC(C2)CC1C3 (stereo not given) | > 229 | 34.7 | –
58 | CC1N=C(SCc2c(F)cccc2Cl)N2C(C)N=C(SCc3c(F)cccc3Cl)N12 (stereo not given) | > 20.4 | > 20.4 | –
59 | CC(=O)c1ccc(N=NN2CCCC2)cc1 | > 200 | 89.1 | –
60 | COc1cc([C@@H]2C3C(=O)c4ccccc4C3[C@@H](c3cc(OC)c(OC)c(OC)c3)C23Cc2ccccc2C3=O)cc(OC)c1OC (stereo not given in full) | > 200 | 31.6 | –
61 | C/C(=N/NC(N)=S)C(CN1CCOCC1)C(C1=C(O)c2ccccc2OC1)c1ccccc1 (stereo not given) | > 37.2 | > 37.2 | –
62 | CN(C)CCn1c2c3ccccc3ccc2c2oc(=O)c3ccccc3c21 | > 18.2 | 8.51 | –
63 | CC(C)C1CCC/C=C/C=C/C=C/C=C/C(OC2OC(C)C(O)C(N)C2O)CC2OC(O)(CC(O)CC(O)C(O)CCC(=O)O1)CC(O)C2C(=O)O (stereo not given) | > 339 | > 339 | –
64 | Cc1ccc(S(=O)(=O)N(/N=C(\N)Oc2ccc(Cl)cc2)C(=N)Oc2ccc(Cl)cc2)cc1 | > 100 | > 100 | –
65 | CCCC(=O)[O-].N.N.N.N.N.[Co+3].[O-][Cl+3]([O-])([O-])[O-] | – | – | inactive
66 | Nc1ncnc2c1ncn2C1OC(CSCC(F)(F)F)C(O)C1O (stereo not given) | > 692 | 245 | –

Row | SMILES | EC50 [µM] | IC50 [µM] | outcome
67 | Cc1ccc(C)c(NC(=O)CCC(=O)CC(=O)C(C)(C)C)c1 | – | – | inactive
68 | COc1cc2c(cc1O)-c1[nH]ncc1CCC2 | > 43.7 | > 43.7 | –
69 | O=C1CC(O)CC(=O)C1=C(O)CCCCCCCCCCc1ccccc1 (stereo not given) | > 19.5 | > 19.5 | –
70 | Oc1ccc(Cl)cc1CN1CCN(Cc2cc(Cl)ccc2O)C1 | > 200 | 1.38 | –
71 | CN1CCN(c2c(Cl)cc(Cl)c3[nH]c4ccccc4c(=O)c23)CC1 | > 2 | 0.977 | –
72 | CC(C)CCCC(C)[C@H]1CCC2C3C/C(=C\C#N)[C@H]4CCCC[C@]4(C)C3CC[C@@]21C (stereo not given in full) | > 100 | > 100 | –
73 | NC(=S)N/N=C\CC(O)(C(F)(F)F)C(F)(F)F | > 200 | > 200 | –
74 | Cc1ccccc1-c1nc2c(N)nc(N)nc2nc1N | – | – | inactive
75 | COC(=O)c1cc2c(cc1CC(Cc1ccc3c(c1)CCCC3)C(=O)OC)CCCC2 (stereo not given) | > 200 | 57.5 | –
76 | CCOC(=O)[C@H]1Nc2ccccc2C2c3ccccc3CC21 (stereo not given in full) | > 64.6 | > 64.6 | –
77 | O/N=C(/CC(O)(C(F)(F)F)C(F)(F)F)c1ccccc1 | > 200 | > 200 | –
78 | COC(=O)CC1C(=O)OC23CCC1C2(C)CCC1C3CCC2CC(OC(C)=O)CCC21C (stereo not given) | – | – | inactive
79 | O=c1c2cc(Br)ccc2[nH]c(=S)n1-c1ccccc1 | > 40.7 | > 40.7 | –
80 | Cc1[nH]c2c(C)cccc2c1C1Cc2ccccc2N1 (stereo not given) | – | – | inactive
81 | CCCCC(/C=N/Nc1ccc([N+](=O)[O-])cn1)CC (stereo not given) | > 200 | > 200 | –
82 | COC(OC)(c1ccccc1)C(I)I | – | – | inactive
83 | Cc1ccc(Nc2c3c(c(C#N)c4nc5ccccc5n24)CCCC3)cc1 | > 200 | 10.7 | –
84 | NC(=O)C(O)C(O)C(N)=O (stereo not given) | > 457 | > 457 | –
85 | c1ccc(Nc2nn3c(CCCCCCCCc4nnc5sc(Nc6ccccc6)nn45)nnc3s2)cc1 | > 200 | 39.8 | –
86 | Cc1cccc(C(=O)c2cccc3ccccc23)c1C(=O)O | – | – | inactive
87 | C[C@]12CC[C@H](OC(=O)/C=C\c3ccc(N(CCCl)CCCl)cc3)CC1CC[C@@H]1C2CC[C@]2(C)NC(=O)CCC12 (stereo not given in full) | – | – | inactive
88 | O=C1Oc2ccccc2C(=O)/C1=C/N1C(=O)N/C(=C\c2cccc(O)c2)C1=O | > 200 | 148 | –
